Reference: patent US11753408B2, “Compounds and method for blocking transmission of malarial parasite” (The United States of America, as represented by the …, priority 2016, dated 2023)

Assays:
Solubility at pH 7.4 = type: physicochemical
PAMPA permeability = type: in vitro ADME
[1] = tested on: Asexual parasites of P. falciparum strain 3D7; assay: In vitro drug activity on asexual parasites (SYBR Green assay); type: cell-based, Plasmodium falciparum
In short: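 3D7 parasites at 0.5% parasitemia and 2% hematocrit were exposed to drugs (DMSO ≤0.5%) for 72 h under standard culture conditions, in duplicate. After freeze-thaw lysis, SYBR Green I lysis buffer was added for 30 min at room temperature, and fluorescence was read at 490/520 nm.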

[2] = Microsomal stability (rat); type: in vitro ADME; conditions: rat microsomes
mTOR = mTOR (Homo sapiens, UniProt P42345); assay: mTOR activity (no method described); type: biochemical

## O=C(NC1CC1)c1ccc(-n2c(=O)ccc3cnc4ccc(-c5ccc(F)c(O)c5)cc4c32)cc1 [Compound 203]
Solubility at pH 7.4
  Sol @ pH 7.4: 1.2 ug/mL
PAMPA permeability
  PAMPA Permeability: 7500 nm/s
[1]
  EC50: 0.0172 µM
[2]
  Microsomal Stability (rat) T1/2: 29.3 min
mTOR
  mTOR: 0.5128 µM

## O=C(O)c1ccc(-n2c(=O)ccc3c(O)nc4ccc(-c5ccc(Cl)cc5)cc4c32)cc1 [Compound 237]
Solubility at pH 7.4
  Sol @ pH 7.4: >65 ug/mL
PAMPA permeability
  PAMPA Permeability: 33 nm/s
[1]
  EC50: 39.5 µM
[2]
  Microsomal Stability (rat) T1/2: >30 min
mTOR
  mTOR: 100 µM

## Cc1cc(C(=O)NC2CCN(CCO)CC2)ccc1-n1c(=O)ccc2cnc3ccc(-c4ccc(Cl)cc4)cc3c21 [Compound 279]
Solubility at pH 7.4
  Sol @ pH 7.4: >84 ug/mL
PAMPA permeability
  PAMPA Permeability: 491 nm/s
[1]
  EC50: 0.0505 µM
[2]
  Microsomal Stability (rat) T1/2: 15.8 min
mTOR
  mTOR: 1.317 µM

## CCN(CC)CCNC(=O)c1ccc(-n2c(=O)ccc3cnc4ccc(-c5ccc(Cl)cc5)cc4c32)c(OC)c1 [Compound 249]
Solubility at pH 7.4
  Sol @ pH 7.4: >82 ug/mL
PAMPA permeability
  PAMPA Permeability: 10700 nm/s
[1]
  EC50: 0.576 µM
[2]
  Microsomal Stability (rat) T1/2: 7.9 min
mTOR
  mTOR: 14.76 µM

## COc1cc(C(=O)NC2CCN(CCN(C)C)CC2)ccc1-n1c(=O)ccc2cnc3ccc(-c4ccc(Cl)cc4)cc3c21 [Compound 250]
Solubility at pH 7.4
  Sol @ pH 7.4: 9.5 ug/mL
PAMPA permeability
  PAMPA Permeability: 143 nm/s
[1]
  EC50: 0.549 µM
[2]
  Microsomal Stability (rat) T1/2: >30 min
mTOR
  mTOR: 2.911 µM

## O=C(NCCCN1CCCC1)c1ccc(-n2c(=O)ccc3cnc4ccc(-c5ccc(Cl)cc5)cc4c32)cc1 [Compound 206]
Solubility at pH 7.4
  Sol @ pH 7.4: 44.1 ug/mL
PAMPA permeability
  PAMPA Permeability: 4280 nm/s
[1]
  EC50: 0.0489 µM
[2]
  Microsomal Stability (rat) T1/2: 7.1 min
mTOR
  mTOR: 19.64 µM

## O=C(NCCN1CCC1)c1ccc(-n2c(=O)ccc3cnc4ccc(-c5ccc(Cl)cc5)cc4c32)cc1 [Compound 285]
Solubility at pH 7.4
  Sol @ pH 7.4: 41.6 ug/mL
PAMPA permeability
  PAMPA Permeability: 1590 nm/s
[1]
  EC50: 0.0597 µM
[2]
  Microsomal Stability (rat) T1/2: >30 min
mTOR
  mTOR: 1.506 µM

## COc1cc(C(=O)NC2CCN(CCO)CC2)ccc1-n1c(=O)ccc2cnc3ccc(-c4ccc(Cl)cc4)cc3c21 [Compound 254]
Solubility at pH 7.4
  Sol @ pH 7.4: 53.1 ug/mL
PAMPA permeability
  PAMPA Permeability: 57 nm/s
[1]
  EC50: 0.206 µM
[2]
  Microsomal Stability (rat) T1/2: >30 min
mTOR
  mTOR: 3.012 µM

## Cc1cc(C(=O)NCCN2CCCC2)ccc1-n1c(=O)ccc2cnc3ccc(-c4ccc(Cl)cc4)cc3c21 [Compound 295]
Solubility at pH 7.4
  Sol @ pH 7.4: 0 ug/mL
PAMPA permeability
  PAMPA Permeability: 6390 nm/s
[1]
  EC50: 0.162 µM
[2]
  Microsomal Stability (rat) T1/2: 10.6 min
mTOR
  mTOR: 23.74 µM

## Cc1cc(C(=O)NCCCN(C)C)ccc1-n1c(=O)ccc2cnc3ccc(-c4ccc(Cl)cc4)cc3c21 [Compound 275]
Solubility at pH 7.4
  Sol @ pH 7.4: 65.6 ug/mL
PAMPA permeability
  PAMPA Permeability: 4270 nm/s
[1]
  EC50: 0.0442 µM
[2]
  Microsomal Stability (rat) T1/2: 19.9 min
mTOR
  mTOR: 4.039 µM

## Nc1cc(-c2ccc3ncc4ccc(=O)n(-c5ccc(C(=O)NC6CC6)cc5)c4c3c2)ccc1Cl [Compound 238]
Solubility at pH 7.4
  Sol @ pH 7.4: <1 ug/mL
PAMPA permeability
  PAMPA Permeability: 4390 nm/s
[1]
  EC50: 0.0568 µM
[2]
  Microsomal Stability (rat) T1/2: >30 min
mTOR
  mTOR: 0.2148 µM

## O=C(c1ccc(-n2c(=O)ccc3c(F)nc4ccc(-c5ccc(Cl)cc5)cc4c32)cc1)N1CCOCC1 [Compound 235]
Solubility at pH 7.4
  Sol @ pH 7.4: <1 ug/mL
PAMPA permeability
  PAMPA Permeability: 5640 nm/s
[1]
  EC50: 24.4 µM
[2]
  Microsomal Stability (rat) T1/2: 3.4 min
mTOR
  mTOR: 100 µM

## Cc1cc(C(=O)NCCCN2CCCCC2)ccc1-n1c(=O)ccc2cnc3ccc(-c4ccc(Cl)cc4)cc3c21 [Compound 278]
Solubility at pH 7.4
  Sol @ pH 7.4: >83 ug/mL
PAMPA permeability
  PAMPA Permeability: 13800 nm/s
[1]
  EC50: 0.11 µM
[2]
  Microsomal Stability (rat) T1/2: 2.6 min
mTOR
  mTOR: 8 µM

## CCNC(=O)c1ccc(-n2c(=O)ccc3cnc4ccc(-c5ccc(Cl)cc5)cc4c32)cc1 [Compound 216]
Solubility at pH 7.4
  Sol @ pH 7.4: <1 ug/mL
PAMPA permeability
  PAMPA Permeability: 11 nm/s
[1]
  EC50: 0.0422 µM
[2]
  Microsomal Stability (rat) T1/2: 6.7 min
mTOR
  mTOR: 0.8321 µM

## CC1CCN(CCCNC(=O)c2ccc(-n3c(=O)ccc4cnc5ccc(-c6ccc(Cl)cc6)cc5c43)cc2)CC1 [Compound 286]
Solubility at pH 7.4
  Sol @ pH 7.4: 35.6 ug/mL
PAMPA permeability
  PAMPA Permeability: 8630 nm/s
[1]
  EC50: 0.0537 µM
[2]
  Microsomal Stability (rat) T1/2: 2.4 min
mTOR
  mTOR: 11.77 µM

## Cc1cc(C(=O)NCCN(C)c2ccccc2)ccc1-n1c(=O)ccc2cnc3ccc(-c4ccc(Cl)cc4)cc3c21 [Compound 292]
Solubility at pH 7.4
  Sol @ pH 7.4: 0 ug/mL
PAMPA permeability
  PAMPA Permeability: 34 nm/s
[1]
  EC50: 1.14 µM
[2]
  Microsomal Stability (rat) T1/2: 1.7 min
mTOR
  mTOR: 15.56 µM

## O=C(c1ccc(-n2c(=O)ccc3c[n+]([O-])c4ccc(-c5ccc(Cl)cc5)cc4c32)cc1)N(CCO)CCO [Compound 236]
Solubility at pH 7.4
  Sol @ pH 7.4: >78 ug/mL
PAMPA permeability
  PAMPA Permeability: < 10 nm/s
[1]
  EC50: 1.2 µM
[2]
  Microsomal Stability (rat) T1/2: >30 min
mTOR
  mTOR: 50 µM

## CCN(CC)CCCNC(=O)c1ccc(-n2c(=O)ccc3cnc4ccc(-c5ccc(Cl)cc5)cc4c32)c(C)c1 [Compound 290]
Solubility at pH 7.4
  Sol @ pH 7.4: 63.1 ug/mL
PAMPA permeability
  PAMPA Permeability: 3110 nm/s
[1]
  EC50: 0.0644 µM
[2]
  Microsomal Stability (rat) T1/2: 3 min
mTOR
  mTOR: 4.806 µM

## CC(N)c1ccc(-c2ccc3ncc4ccc(=O)n(-c5ccc(C(=O)N6CCOCC6)cc5)c4c3c2)cc1 (centres unmarked) [Compound 207]
Solubility at pH 7.4
  Sol @ pH 7.4: 58.1 ug/mL
PAMPA permeability
  PAMPA Permeability: < 10 nm/s
[1]
  EC50: 0.145 µM
[2]
  Microsomal Stability (rat) T1/2: >30 min
mTOR
  mTOR: 0.1688 µM

## O=C(NCC1CCOCC1)c1ccc(-n2c(=O)ccc3cnc4ccc(-c5ccc(Cl)cc5)cc4c32)cc1 [Compound 288]
Solubility at pH 7.4
  Sol @ pH 7.4: <1 ug/mL
PAMPA permeability
  PAMPA Permeability: 188 nm/s
[1]
  EC50: 0.284 µM
[2]
  Microsomal Stability (rat) T1/2: 1.2 min
mTOR
  mTOR: 1.258 µM

## CN(C)CC#Cc1ccc2ncc3ccc(=O)n(-c4ccc(C(=O)N5CCOCC5)cc4)c3c2c1 [Compound 218]
Solubility at pH 7.4
  Sol @ pH 7.4: >69 ug/mL
PAMPA permeability
  PAMPA Permeability: 1000 nm/s
[1]
  EC50: 1.68 µM
[2]
  Microsomal Stability (rat) T1/2: >30 min
mTOR
  mTOR: 16.25 µM

## Cc1cc(C(=O)NC2CC2)ccc1-n1c(=O)ccc2cnc3ccc(-c4ccc(Cl)c(O)c4)cc3c21 [Compound 225]
Solubility at pH 7.4
  Sol @ pH 7.4: <1 ug/mL
PAMPA permeability
  PAMPA Permeability: 7350 nm/s
[1]
  EC50: 0.0198 µM
[2]
  Microsomal Stability (rat) T1/2: 23.3 min
mTOR
  mTOR: 0.9169 µM

## COc1cc(C(=O)N2CCOCC2)ccc1-n1c(=O)ccc2cnc3ccc(-c4ccc(Cl)cc4)cc3c21 [Compound 199]
Solubility at pH 7.4
  Sol @ pH 7.4: 1.4 ug/mL
PAMPA permeability
  PAMPA Permeability: 14400 nm/s
[1]
  EC50: 0.109 µM
[2]
  Microsomal Stability (rat) T1/2: 5.6 min
mTOR
  mTOR: 16.51 µM

## COc1cc(C(=O)NCCCN2CCC(C)CC2)ccc1-n1c(=O)ccc2cnc3ccc(-c4ccc(Cl)cc4)cc3c21 [Compound 255]
Solubility at pH 7.4
  Sol @ pH 7.4: >88 ug/mL
PAMPA permeability
  PAMPA Permeability: 10400 nm/s
[1]
  EC50: 0.182 µM
[2]
  Microsomal Stability (rat) T1/2: 2.3 min
mTOR
  mTOR: 12.95 µM

## CN(C)C(=O)c1ccc(-n2c(=O)ccc3c[n+]([O-])c4ccc(-c5ccc(Cl)cc5)cc4c32)cc1 [Compound 208]
Solubility at pH 7.4
  Sol @ pH 7.4: 35.5 ug/mL
PAMPA permeability
  PAMPA Permeability: 2480 nm/s
[1]
  EC50: 0.0659 µM
[2]
  Microsomal Stability (rat) T1/2: 13.2 min
mTOR
  mTOR: 21.75 µM

## Cc1cc(C(=O)NCCN2CCC2)ccc1-n1c(=O)ccc2cnc3ccc(-c4ccc(Cl)cc4)cc3c21 [Compound 293]
Solubility at pH 7.4
  Sol @ pH 7.4: 0 ug/mL
PAMPA permeability
  PAMPA Permeability: 2410 nm/s
[1]
  EC50: 0.146 µM
[2]
  Microsomal Stability (rat) T1/2: 22.9 min
mTOR
  mTOR: 6.103 µM

## O=C(NCC(F)(F)F)c1ccc(-n2c(=O)ccc3cnc4ccc(-c5ccc(Cl)cc5)cc4c32)cc1 [Compound 89]
Solubility at pH 7.4
  Sol @ pH 7.4: <1 ug/mL
PAMPA permeability
  PAMPA Permeability: < 10 nm/s
[1]
  EC50: 0.0521 µM
[2]
  Microsomal Stability (rat) T1/2: >30 min
mTOR
  mTOR: 2.689 µM

## NC(=O)c1ccc(-n2c(=O)ccc3cnc4ccc(-c5ccc(Cl)cc5)cc4c32)cc1 [Compound 239]
Solubility at pH 7.4
  Sol @ pH 7.4: <1 ug/mL
PAMPA permeability
  PAMPA Permeability: 799 nm/s
[1]
  EC50: 0.0175 µM
[2]
  Microsomal Stability (rat) T1/2: >30 min
mTOR
  mTOR: 0.2422 µM
